Data as given in PMC7587356, “High-Throughput Screening for Inhibitors of the SARS-CoV-2 Protease Using a FRET-Biosensor” (Molecules, 2020).
Where a name gives a salt, the structure may show the parent alone. Read-outs that look alike come from different tables or passages of the source.

Target: SARS-CoV-2 3CLpro (Severe acute respiratory syndrome coronavirus 2, UniProt P0DTD1)
Assay: biochemical
Format: biochemical
Design: Replicate_1 / Replicate_2 / mean / mean (LOPAC_screen_w_protease): unit not given here
Details: for inhibition at 5 µM: 4 h
[1] = sheet LOPAC_screen_w_protease, primary screen with protease, mean of two replicates
[2] = sheet LOPAC_screen_w_protease, primary screen with protease, replicate 1
[3] = sheet LOPAC_screen_w_protease, primary screen with protease, replicate 2
[4] = sheet LOPAC_screen_w_protease, primary screen at 5 µM, mean of two replicates
[5] = sheet LOPAC_screen_w_protease, primary screen at 5 µM, replicate 1
[6] = sheet LOPAC_screen_w_protease, primary screen at 5 µM, replicate 2
[7] = sheet LOPAC_screen_w_protease, primary screen with protease, 5 µM, mean of two replicates, read-out: mean
[8] = sheet LOPAC_screen_w_protease, primary screen with protease, 5 µM, replicate 1, read-out: Replicate_1
[9] = sheet LOPAC_screen_w_protease, primary screen with protease, 5 µM, replicate 2, read-out: Replicate_2
[10] = sheet LOPAC_screen_w_protease, primary screen with protease, 5 µM, mean of two replicates
[11] = sheet LOPAC_screen_w_protease, primary screen with protease, 5 µM, replicate 1
[12] = sheet LOPAC_screen_w_protease, primary screen with protease, 5 µM, replicate 2
[13] = sheet LOPAC_screen_w_protease, primary screen with protease, compound at 5 µM, mean of two replicates
[14] = sheet LOPAC_screen_w_protease, primary screen with protease, compound at 5 µM, replicate 1
[15] = sheet LOPAC_screen_w_protease, primary screen with protease, compound at 5 µM, replicate 2
[16] = sheet LOPAC_screen_w_protease, LOPAC1280 primary screen at 5 µM, with protease, mean of the two replicates
[17] = sheet LOPAC_screen_w_protease, LOPAC1280 primary screen at 5 µM, with protease, replicate 1
[18] = sheet LOPAC_screen_w_protease, LOPAC1280 primary screen at 5 µM, with protease, replicate 2
[19] = sheet LOPAC_screen_w_protease, LOPAC1280 at 5 µM, mean of two replicates
[20] = sheet LOPAC_screen_w_protease, LOPAC1280 at 5 µM, replicate 1
[21] = sheet LOPAC_screen_w_protease, LOPAC1280 at 5 µM, replicate 2
[22] = LOPAC1280 primary screen with protease, 5 µM compound, mean of two replicates
[23] = LOPAC1280 primary screen with protease, 5 µM compound, replicate 1
[24] = LOPAC1280 primary screen with protease, 5 µM compound, replicate 2
[25] = LOPAC1280 primary screen with protease, 5 µM compound, mean of the two replicates
[26] = sheet LOPAC_screen_w_protease, primary screen of LOPAC1280 at 5 µM with protease, mean of the two replicates
[27] = sheet LOPAC_screen_w_protease, primary screen of LOPAC1280 at 5 µM with protease, replicate 1
[28] = sheet LOPAC_screen_w_protease, primary screen of LOPAC1280 at 5 µM with protease, replicate 2
[29] = sheet LOPAC_screen_w_protease, LOPAC1280 at 5 µM, mean of two replicates, read-out: mean
[30] = sheet LOPAC_screen_w_protease, LOPAC1280 at 5 µM, replicate 1, read-out: Replicate_1
[31] = sheet LOPAC_screen_w_protease, LOPAC1280 at 5 µM, replicate 2, read-out: Replicate_2
[32] = LOPAC1280 primary screen with protease, 5 µM compound, replicate 1, read-out: Replicate_1 (LOPAC_screen_w_protease)
[33] = LOPAC1280 primary screen with protease, 5 µM compound, replicate 2, read-out: Replicate_2 (LOPAC_screen_w_protease)

CCCn1c(=O)[nH]c(=O)c2nc[nH]c21 [3-n-Propylxanthine]
mean [1]: 2.529
Replicate_1 [2]: 1.492
Replicate_2 [3]: 3.5659

Nc1ccc2c3c(cccc13)C(=O)NC2=O [4-Amino-1,8-naphthalimide]
mean (LOPAC screen with protease) [4]: 6.555
Replicate_1 (LOPAC screen with protease) [5]: 8.124
Replicate_2 (LOPAC screen with protease) [6]: 4.986

N=C(N)c1ccc(N)cc1 [4-Aminobenzamidine dihydrochloride]
inhibition at 5 µM [7]: -0.229%
inhibition at 5 µM [8]: 1.52%
inhibition at 5 µM [9]: -1.98%

Nc1ccncc1 [4-Aminopyridine]
inhibition at 5 µM [7]: -0.189%
inhibition at 5 µM [8]: 0.392%
inhibition at 5 µM [9]: -0.771%

C[C@]12CCC(=O)C(O)=C1CC[C@@H]1[C@@H]2CC[C@]2(C)C(=O)CC[C@@H]12 [4-Androsten-4-ol-3,17-dione]
mean [10]: 0.2033
Replicate_1 [11]: 1.5144
Replicate_2 [12]: -1.108

C[C@]12CCC(=O)C=C1CC[C@@H]1[C@@H]2CC[C@]2(C)C(=O)CC[C@@H]12 [4-Androstene-3,17-dione]
inhibition at 5 µM (read-out: Replicate_1): 0.757%
inhibition at 5 µM (read-out: Replicate_2): 1.66%
inhibition at 5 µM (read-out: mean): 1.21%

C[N+]1(C)CCC(OC(=O)C(c2ccccc2)c2ccccc2)CC1.[I-] [4-DAMP methiodide]
mean [1]: 2.136
Replicate_1 [2]: 2.4758
Replicate_2 [3]: 1.796

COc1cc(CC(=O)O)ccc1O [4-Hydroxy-3-methoxyphenylacetic acid]
mean [10]: 0.06748
Replicate_1 [11]: 3.737
Replicate_2 [12]: -3.602

NNC(=O)c1ccc(O)cc1 [4-Hydroxybenzhydrazide]
mean [13]: 2.583
Replicate_1 [14]: 1.695
Replicate_2 [15]: 3.47

Cl.NCCc1ccc(O)cc1 [4-Hydroxyphenethylamine hydrochloride]
mean [16]: 0.878
Replicate_1 [17]: 0.5582
Replicate_2 [18]: 1.1978

O=C(O)C=Cc1c[nH]cn1 [4-Imidazoleacrylic acid]
mean [19]: 0.9588
Replicate_1 [20]: 1.559
Replicate_2 [21]: 0.3591

Cl.OCc1c[nH]cn1 [4-Imidazolemethanol hydrochloride]
mean [19]: 1.065
Replicate_1 [20]: 2.558
Replicate_2 [21]: -0.4285

Cc1cn[nH]c1.Cl [4-Methylpyrazole hydrochloride]
mean (sheet LOPAC_screen_w_protease, LOPAC1280 primary screen with protease, 5 µM compound, mean of the two replicates): 4.54
Replicate_2 (sheet LOPAC_screen_w_protease, LOPAC1280 primary screen with protease, 5 µM compound, replicate 2): 6.559

N#Cc1c(-c2ccccc2)no[n+]1[O-] [4-Phenyl-3-furoxancarbonitrile]
mean [13]: 2.827
Replicate_1 [14]: 3.156
Replicate_2 [15]: 2.497

Nc1ncnc2c1ncn2[C@@H]1O[C@H](C(=O)NC2CC2)[C@@H](O)[C@H]1O [5'-(N-Cyclopropyl)carboxamidoadenosine]
mean (LOPAC_screen_w_protease) [22]: 1.624
Replicate_1 (LOPAC_screen_w_protease) [23]: 1.713
Replicate_2 (LOPAC_screen_w_protease) [24]: 1.536

CCNC(=O)[C@H]1O[C@@H](n2cnc3c(N)ncnc32)[C@H](O)[C@@H]1O [5'-N-Ethylcarboxamidoadenosine]
mean (LOPAC_screen_w_protease) [25]: 1.81
Replicate_1 (LOPAC_screen_w_protease) [23]: 1.565
Replicate_2 (LOPAC_screen_w_protease) [24]: 2.055

CNC(=O)[C@H]1O[C@@H](n2cnc3c(N)ncnc32)[C@H](O)[C@@H]1O [5'-N-Methyl carboxamidoadenosine]
mean [26]: 3.814
Replicate_1 [27]: 3.632
Replicate_2 [28]: 3.996

CC1(C)CCC=[N+]1[O-] [5,5-Dimethyl-1-pyrroline-N-oxide]
mean [19]: 1.097
Replicate_1 [20]: 0.9422
Replicate_2 [21]: 1.253

O=C1NC(=O)C(c2ccccc2)(c2ccccc2)N1 [5,5-Diphenylhydantoin]
inhibition at 5 µM [29]: 1.1%
inhibition at 5 µM [30]: 1.83%
inhibition at 5 µM [31]: 0.367%

O=C(O)c1cc(=O)c2c(Cl)cc(Cl)cc2[nH]1 [5,7-Dichlorokynurenic acid]
mean [26]: 3.519
Replicate_1 [27]: 3.053
Replicate_2 [28]: 3.985

CN(C)c1nc(N)c(C(=O)NC(=N)N)nc1Cl [5-(N,N-Dimethyl)amiloride hydrochloride]
inhibition at 5 µM [32]: 1.67%
inhibition at 5 µM [33]: 1.33%
mean (LOPAC_screen_w_protease) [22]: 1.502

N=C(N)NC(=O)c1nc(Cl)c(N2CCCCCC2)nc1N [5-(N,N-hexamethylene)amiloride]
mean [1]: 2.452
Replicate_1 [2]: 2.2643
Replicate_2 [3]: 2.64

CCN(c1nc(N)c(C(=O)NC(=N)N)nc1Cl)C(C)C [5-(N-Ethyl-N-isopropyl)amiloride]
inhibition at 5 µM [29]: 1.01%
inhibition at 5 µM [30]: 1.63%
inhibition at 5 µM [31]: 0.388%

CC(C)CN(C)c1nc(N)c(C(=O)N=C(N)N)nc1Cl [5-(N-Methyl-N-isobutyl)amiloride]
inhibition at 5 µM (sheet LOPAC_screen_w_protease, LOPAC1280 primary screen at 5 µM, with protease, mean of the two replicates, read-out: mean): 0.449%
inhibition at 5 µM (sheet LOPAC_screen_w_protease, LOPAC1280 primary screen at 5 µM, with protease, replicate 1, read-out: Replicate_1): 0.238%
inhibition at 5 µM (sheet LOPAC_screen_w_protease, LOPAC1280 primary screen at 5 µM, with protease, replicate 2, read-out: Replicate_2): 0.66%

Cl.NCCCCC(=O)O [5-Aminovaleric acid hydrochloride]
mean [10]: 0.3592
Replicate_1 [11]: 0.7789
Replicate_2 [12]: -0.06046

O=c1[nH]c(=O)n([C@H]2C[C@H](O)[C@@H](CO)O2)cc1Br [5-Bromo-2'-deoxyuridine]
inhibition at 5 µM [32]: 1.74%
inhibition at 5 µM [33]: 1.06%
mean (LOPAC_screen_w_protease) [22]: 1.398

NCCc1c[nH]c2ccc(C(N)=O)cc12.O=C(O)/C=C\C(=O)O [5-Carboxamidotryptamine maleate]
mean (LOPAC_screen_w_protease) [25]: 1.776
Replicate_1 (LOPAC_screen_w_protease) [23]: 2.928
Replicate_2 (LOPAC_screen_w_protease) [24]: 0.6229

O=C(O)c1cc2cc(F)ccc2[nH]1 [5-Fluoroindole-2-carboxylic acid]
inhibition at 5 µM [7]: -0.381%
inhibition at 5 µM [8]: 0.54%
inhibition at 5 µM [9]: -1.3%

N[C@@H](Cc1c[nH]c2ccc(O)cc12)C(=O)O [5-Hydroxy-L-tryptophan]
inhibition at 5 µM (sheet LOPAC_screen_w_protease, primary screen at 5 µM, mean of two replicates, read-out: mean (LOPAC screen with protease)): 14.5%
inhibition at 5 µM (sheet LOPAC_screen_w_protease, primary screen at 5 µM, replicate 1, read-out: Replicate_1 (LOPAC screen with protease)): 16.3%
inhibition at 5 µM (sheet LOPAC_screen_w_protease, primary screen at 5 µM, replicate 2, read-out: Replicate_2 (LOPAC screen with protease)): 12.8%

O=C(O)Cc1c[nH]c2ccc(O)cc12 [5-Hydroxyindolacetic acid]
mean [10]: -0.3702
Replicate_1 [11]: 1.641
Replicate_2 [12]: -2.381

Nc1ncn([C@@H]2O[C@H](CO)[C@@H](O)[C@H]2O)c(=O)n1 [5-azacytidine]
mean (LOPAC screen with protease) [4]: 9.256
Replicate_1 (LOPAC screen with protease) [5]: 17.5612
Replicate_2 (LOPAC screen with protease) [6]: 0.9518

C[C@H]1O[C@@H](n2cc(F)c(=O)[nH]c2=O)[C@H](O)[C@@H]1O [5-fluoro-5'-deoxyuridine]
mean [13]: 2.678
Replicate_1 [14]: 3.684
Replicate_2 [15]: 1.673

CCCCCC(O)CCCC(=O)O.[Na] (centres unmarked) [5-hydroxydecanoic acid sodium]
mean [10]: 0.3617
Replicate_1 [11]: 2.03
Replicate_2 [12]: -1.306

C[C@]12CC[C@@H](O)C[C@@H]1CC[C@@H]1[C@@H]2CC[C@]2(C)[C@@H](O)CC[C@@H]12 [5alpha-Androstane-3alpha,17beta-diol]
mean (LOPAC_screen_w_protease) [22]: 1.678
Replicate_1 (LOPAC_screen_w_protease) [23]: 0.2579
Replicate_2 (LOPAC_screen_w_protease) [24]: 3.098

CC(=O)[C@H]1CC[C@H]2[C@@H]3CC[C@H]4C[C@H](O)CC[C@]4(C)[C@H]3C(=O)C[C@]12C [5alpha-Pregnan-3alpha-ol-11,20-dione]
mean [1]: 2.341
Replicate_1 [2]: 0.8983
Replicate_2 [3]: 3.784

CC(=O)[C@H]1CC[C@H]2[C@@H]3CC[C@H]4C[C@H](O)CC[C@]4(C)[C@H]3CC[C@]12C [5alpha-Pregnan-3alpha-ol-20-one]
mean [16]: 0.7105
Replicate_1 [17]: 1.221
Replicate_2 [18]: 0.1995
